Test results from patent US6683103B2, “Sulfonamides for treatment of endothelin-mediated disorders” (Texas Biotechnology Corporation, priority 1997, dated 2004).

What was measured:
human ETA receptors = biological target: T1, human ETA receptors (Homo sapiens, UniProt P25101); assay: Binding Test #1: inhibition of 125I-ET-1 binding to ETA receptors (TE 671 cell membranes); conditions: Table 1; † incubation at 24° C.; read-out: ETA
T1 construct: endogenous in cells; host or cells: TE 671 cells (ATCC HTB 139)
T1 sequence (P25101 21-427): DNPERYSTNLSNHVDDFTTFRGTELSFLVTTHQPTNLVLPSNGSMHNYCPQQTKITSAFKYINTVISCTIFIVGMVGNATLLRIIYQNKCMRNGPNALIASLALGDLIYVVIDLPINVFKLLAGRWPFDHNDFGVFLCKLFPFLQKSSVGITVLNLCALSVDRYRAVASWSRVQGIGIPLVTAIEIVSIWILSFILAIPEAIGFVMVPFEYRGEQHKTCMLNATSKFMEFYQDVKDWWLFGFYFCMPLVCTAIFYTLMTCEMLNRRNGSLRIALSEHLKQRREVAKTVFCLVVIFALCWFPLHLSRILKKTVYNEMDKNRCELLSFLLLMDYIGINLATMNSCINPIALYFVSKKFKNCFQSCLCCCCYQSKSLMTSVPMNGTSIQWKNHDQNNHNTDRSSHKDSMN
How it was run: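 Membranes from TE 671 cells (up to 8 μg protein) incubated with ¹²⁵I-ET-1 and compound (1 nM–100 μM final) in 30 mM HEPES pH 7.4, 150 mM NaCl, 5 mM MgCl2, 0.5% bacitracin, 16–18 h at 4 °C or alternatively at 24 °C. Nonspecific binding with 80 nM ET-1; bound pellet gamma-counted, % inhibition calculated, usually triplicate.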

human ETB receptor = biological target: T2, human ETB receptor (Homo sapiens, UniProt P24530); assay: Binding Test #2: inhibition of 125I-ET-1 binding to ETB receptors (transfected COS7 cell membranes); conditions: Table 1; † incubation at 24° C.; read-out: ETB
T2 construct: expressed in transfected cells; host or cells: COS7 cells
T2 sequence (P24530 27-442): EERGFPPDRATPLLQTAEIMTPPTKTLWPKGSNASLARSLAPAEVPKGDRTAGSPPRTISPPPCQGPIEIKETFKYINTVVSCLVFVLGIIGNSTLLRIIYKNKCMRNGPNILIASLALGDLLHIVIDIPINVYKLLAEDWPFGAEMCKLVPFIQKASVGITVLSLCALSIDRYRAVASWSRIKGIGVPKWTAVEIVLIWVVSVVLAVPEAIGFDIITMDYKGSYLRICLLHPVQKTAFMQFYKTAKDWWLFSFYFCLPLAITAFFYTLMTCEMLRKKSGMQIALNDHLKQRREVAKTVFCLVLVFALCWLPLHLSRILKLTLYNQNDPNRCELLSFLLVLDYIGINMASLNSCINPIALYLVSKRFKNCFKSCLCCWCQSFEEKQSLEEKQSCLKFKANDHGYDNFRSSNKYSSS
How it was run: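 Competition with 125I-ET-1 for binding to membranes from COS7 cells transfected with human ETB receptor, used at 1 μg/50 μl binding buffer. Membranes prepared in HEPES pH 7.4 with aprotinin, including a DNase/MnCl2 step at 37 °C for 30 min.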

Row | SMILES | IC50 (human ETA receptors) [µM] | IC50 (human ETB receptor) [µM]
1 | Cc1cc2c(cc1CC(=O)c1sccc1S(=O)(=O)Nc1onc(C)c1Cl)OCO2 [N-(4-chloro-3-methyl-5-isoxazolyl)-2-[2-methyl-4,5-(methylenedioxy)phenylacetyl]thiophene-3-sulfonamide] | 0.0032 | 9
2 | Cc1noc(NS(=O)(=O)c2ccsc2C(=O)Cc2ccc3c(c2)OCO3)c1Cl [N-(4-chloro-3-methyl-5-isoxazolyl)-2-[(3,4-(methylenedioxy)phenylacetyl]thiophene-3-sulfonamide] | 0.021 | 6.5
